Results reported in patent US20230301981A1, “TLR7/8 ANTAGONISTS AND USES THEREOF” (Merck Patent GmbH, priority 2020, published 2023).

Legend:
Type in all cases: cell-based
TLR7 [1] = biological target: T1, TLR7 (Homo sapiens, UniProt Q9NYK1); experiment: HEK293 TLR7/NFKb reporter cell assay with R848 agonist; design: expressed in transfected cells; host or cells: HEK293
T1 sequence (Q9NYK1 27-1049): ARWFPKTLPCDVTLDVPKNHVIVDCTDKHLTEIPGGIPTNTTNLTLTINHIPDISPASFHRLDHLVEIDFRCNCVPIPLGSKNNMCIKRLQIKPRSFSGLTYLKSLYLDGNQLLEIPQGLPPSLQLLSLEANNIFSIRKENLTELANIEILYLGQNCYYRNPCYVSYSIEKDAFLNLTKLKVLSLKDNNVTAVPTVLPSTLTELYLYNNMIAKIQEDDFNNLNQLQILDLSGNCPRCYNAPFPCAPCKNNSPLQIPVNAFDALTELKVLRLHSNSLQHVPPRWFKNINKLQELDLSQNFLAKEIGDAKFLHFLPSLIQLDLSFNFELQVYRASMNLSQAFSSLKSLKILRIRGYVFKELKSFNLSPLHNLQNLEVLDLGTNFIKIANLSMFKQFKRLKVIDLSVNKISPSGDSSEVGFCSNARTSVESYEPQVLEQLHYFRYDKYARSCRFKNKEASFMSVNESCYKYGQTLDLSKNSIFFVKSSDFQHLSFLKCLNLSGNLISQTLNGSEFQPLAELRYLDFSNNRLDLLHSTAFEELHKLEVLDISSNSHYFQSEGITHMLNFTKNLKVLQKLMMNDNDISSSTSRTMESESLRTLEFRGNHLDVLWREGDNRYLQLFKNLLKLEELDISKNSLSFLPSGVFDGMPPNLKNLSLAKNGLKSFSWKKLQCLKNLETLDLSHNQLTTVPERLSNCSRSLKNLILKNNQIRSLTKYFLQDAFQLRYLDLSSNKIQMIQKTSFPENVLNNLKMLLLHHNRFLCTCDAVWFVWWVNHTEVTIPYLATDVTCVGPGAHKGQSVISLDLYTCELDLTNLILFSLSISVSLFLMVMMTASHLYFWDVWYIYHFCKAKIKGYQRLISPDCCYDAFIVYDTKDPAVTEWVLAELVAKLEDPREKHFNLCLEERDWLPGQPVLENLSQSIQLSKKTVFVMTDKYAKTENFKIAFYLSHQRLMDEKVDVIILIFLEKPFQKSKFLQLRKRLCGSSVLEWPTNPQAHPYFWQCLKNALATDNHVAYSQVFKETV
Experimental: Into 384 CulturePlates (Corning 3707) was placed 5000 c/w of HEK293 TLR7/NFKb reporter cells in 30 µL DMEM without phenol red and 10% i.a. FCS and 2 mM L-glutamine. The cells were incubated for 24 h at 37° C., 10% carbon dioxide and 90% relative humidity. 3 µL of controls, standards, and compounds were dispensed to wells, incubated for 30 min then 3 µL of R848 agonist (Resiquimod) in 20 mM HEPES buffer was added. After incubation for 5 hours, it was allowed to stand at room temperature for 15 min. 10 µL of Steady-Glo substrate reagent was added and assay plates were shaken for 5 min at 1500 rpm. The assay plate was allowed to sit for 30 min at room temperature and then read on an EnVision plate reader.

TLR8 = biological target: T2, TLR8 (Homo sapiens, UniProt Q9NR97); experiment: Human whole blood assay, TLR8-specific agonist stimulation, IL-6 by AlphaLISA; details: TLR8-specific agonist 0.5 µM, IL-6 readout, read-out: IC50 TLR8 (IL6 READOUT) HUMAN WHOLE BLOOD (N=2)
T2 construct: Human whole blood from healthy donors was drawn into EDTA Vacutainer tubes; endogenous in cells; host or cells: human whole blood (healthy donors)
T2 sequence (Q9NR97 27-1041): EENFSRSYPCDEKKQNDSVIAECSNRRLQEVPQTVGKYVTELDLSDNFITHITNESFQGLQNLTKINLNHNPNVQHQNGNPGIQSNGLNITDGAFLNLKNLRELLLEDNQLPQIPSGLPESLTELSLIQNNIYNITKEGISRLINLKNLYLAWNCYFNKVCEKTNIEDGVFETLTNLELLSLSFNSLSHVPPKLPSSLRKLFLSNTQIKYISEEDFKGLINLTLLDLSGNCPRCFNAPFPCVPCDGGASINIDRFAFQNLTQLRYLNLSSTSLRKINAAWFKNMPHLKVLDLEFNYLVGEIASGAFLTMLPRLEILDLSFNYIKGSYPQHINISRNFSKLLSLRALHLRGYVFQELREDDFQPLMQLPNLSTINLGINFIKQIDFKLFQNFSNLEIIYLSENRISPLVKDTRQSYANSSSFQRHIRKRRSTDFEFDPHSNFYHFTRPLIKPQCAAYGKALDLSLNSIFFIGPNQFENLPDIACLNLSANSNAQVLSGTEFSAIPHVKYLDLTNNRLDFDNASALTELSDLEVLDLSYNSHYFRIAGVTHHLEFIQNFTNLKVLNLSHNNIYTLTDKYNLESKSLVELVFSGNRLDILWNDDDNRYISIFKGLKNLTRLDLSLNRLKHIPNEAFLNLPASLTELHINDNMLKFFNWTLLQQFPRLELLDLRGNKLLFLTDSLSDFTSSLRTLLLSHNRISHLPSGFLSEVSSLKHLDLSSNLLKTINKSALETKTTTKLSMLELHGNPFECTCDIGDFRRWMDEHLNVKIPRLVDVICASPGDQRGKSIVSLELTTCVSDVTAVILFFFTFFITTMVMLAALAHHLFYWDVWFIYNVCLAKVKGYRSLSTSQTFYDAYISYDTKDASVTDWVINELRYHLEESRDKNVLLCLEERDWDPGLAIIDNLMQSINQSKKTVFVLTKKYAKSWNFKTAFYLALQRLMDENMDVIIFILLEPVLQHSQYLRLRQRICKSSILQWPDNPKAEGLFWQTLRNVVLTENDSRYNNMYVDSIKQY
Experimental: (§1) Human whole blood from healthy donors was drawn into EDTA Vacutainer tubes and the experiment started within 2 hr of draw. Four parts blood was diluted with 1 part PBS. 10 mM compounds stock solutions were serially diluted 1:3 eleven times in DMSO. Each serial dilution was further diluted by transferring 3 µl to 100 µl RPMI. For the stimulation only and no stimulation controls, 3 µl 100% DMSO was transferred to 100 µl RPMI. Then, 5 µl of each of these dilutions were transferred to 96-well tissue culture grade U-bottom plate in triplicate for each ligand and each donor. Final inhibitor concentrations were 10, 3.3, 1.1, 0.37, 0.12, 0.04, 0.014, 0.0046, 0.0015, 0.00051, 0.00017, 0.00006 µM. No inhibitor (stimulation only) controls were included in triplicate for each donor. Diluted blood was dispensed on top of inhibitor dilutions at 150 µl/well. Plates were incubated at 37° C. 5% CO2 for 30 min. For TLR7 stimulation, 10 mM stock of a TLR7-specific small molecule agonist in DMSO was diluted to 90 µM in RPMI and 5 µl were added to each inhibitor dilution for each donor. Final concentration was 3 µM. For TLR8 stimulation, 10 mM stock of a TLR8-specific small molecule agonist in DMSO was diluted to 15 µM in RPMI and 5 µl were added to each inhibitor dilution for each donor. Final concentration was 0.5 µM. No stimulation controls were included in triplicate for each donor. Plates were incubated at 37° C. 5% CO2 overnight. Next day, plasma was collected and IL-6 was measured by AlphaLISA (PerkinElmer AL223 according to manufacturer’s protocol.

TLR7 [2] = biological target: T1, TLR7; experiment: Human whole blood assay, TLR7-specific agonist stimulation, IL-6 by AlphaLISA; design: Human whole blood from healthy donors was drawn into EDTA Vacutainer tubes; endogenous in cells; host or cells: human whole blood (healthy donors); details: TLR7-specific agonist 3 µM, IL-6 readout, read-out: IC50 TLR7 (IL6 READOUT) HUMAN WHOLE BLOOD (N=2)
Experimental: as §1

[3] = HEK293 TLR7/NFKb reporter cells, R848 agonist, read-out: IC50 TLR7 (IL6 READOUT) HEK TRANSFECTED
[4] = Example 4 results table, assay/readout not specified, read-out: Potency

IC50 (TLR7 [1]; [3]) [nM] | IC50 (TLR8) [nM] | IC50 (TLR7 [2]) [nM] | IC50 (TLR7 [1]; [4]) [nM] | Structure (SMILES)
> 10000 |  |  |  | CCN(CC)Cc1cc(Nc2ccnc3cc(Cl)ccc23)ccc1O [AMODIAQUINE]
 | 53300 | 2280 |  | CCN(CC)CCCC(C)Nc1ccnc2cc(Cl)ccc12 (stereo not shown) [CHLOROQUINE, Chloroquine]
1390 |  |  | < 1000 | CCN(CC)Cc1cc(Nc2ccnc3cc(Cl)ccc23)cc(CN(CC)CC)c1O [Compound 2, CYCLOQUINE]
4590 |  |  | < 1000 | Oc1c(CN2CCCC2)cc(Nc2ccnc3cc(Cl)ccc23)cc1CN1CCCC1 [Compound 3, BISPYROQUINE]
